Values after ≈ are worked out from the molar mass of the structure shown.
How the values were obtained:
Type in all cases: functional
Kluyvera georgiana [1] = assay: Antimicrobial activity against Kluyvera georgiana 14751 expressing beta-lactamase CTX-M-78 obtained from bloodstream of patient by […]
Kluyvera georgiana [2] = assay: Antimicrobial activity against Kluyvera georgiana 14751 expressing beta-lactamase CTX-M-78 obtained from bloodstream of patient by […] in presence of beta-lactamase inhibitor clavulanic acid
Escherichia coli [3] = assay: Antimicrobial activity against Escherichia coli TOP10F' transformant harboring beta-lactamase CTX-M-78 by […]
Escherichia coli [4] = assay: Antimicrobial activity against Escherichia coli TOP10F' by […]

Question: What does the source list for `CC1(C)S[C@@H]2[C@H](NC(=O)[C@H](N)c3ccccc3)C(=O)N2[C@H]1C(=O)O` [AMPICILLIN]?
Answer: MIC (Kluyvera georgiana [1]): 256 µg/mL (≈ 733 µM); MIC (Kluyvera georgiana [2]): 4 µg/mL; MIC (Escherichia coli [3]): 256 µg/mL (≈ 733 µM)

Question: Which results are given for `C[C@H]1[C@H](NC(=O)/C(=N\OC(C)(C)C(=O)O)c2csc(N)n2)C(=O)N1S(=O)(=O)O` [AZTREONAM]?
Answer: MIC (Kluyvera georgiana [1]): ≤ 0.016 µg/mL; MIC (Escherichia coli [3]): 0.5 µg/mL (≈ 1.15 µM)

Question: Which results are given for `CO/N=C(\C(=O)N[C@@H]1C(=O)N2C(C(=O)[O-])=C(C[N+]3(C)CCCC3)CS[C@H]12)c1csc(N)n1` [CEFEPIME]?
Answer: MIC (Kluyvera georgiana [1]): 0.032 µg/mL (≈ 0.0666 µM); MIC (Escherichia coli [3]): 0.5 µg/mL (≈ 1.04 µM); MIC (Escherichia coli [4]): 0.016 µg/mL (≈ 0.0333 µM)

Question: How did the MIC (Kluyvera georgiana [1]) turn out when `CO/N=C(\C(=O)N[C@@H]1C(=O)N2C(C(=O)O)=C(COC(C)=O)CS[C@H]12)c1csc(N)n1` [CEFOTAXIME] was run?
Answer: 0.032 µg/mL (≈ 0.0703 µM)

Question: What about the MIC (Escherichia coli [3]) of the same compound?
Answer: 1 µg/mL (≈ 2.2 µM)

Question: What about the MIC (Escherichia coli [4]) of the same compound?
Answer: ≤ 0.016 µg/mL

Question: How did the MIC (Kluyvera georgiana [1]) turn out when `CO[C@@]1(NC(=O)Cc2cccs2)C(=O)N2C(C(=O)O)=C(COC(N)=O)CS[C@@H]21` [CEFOXITIN] was run?
Answer: 1 µg/mL (≈ 2.34 µM)

Question: What about the MIC (Escherichia coli [3]) of the same compound?
Answer: 2 µg/mL (≈ 4.68 µM)

Question: What about the MIC (Escherichia coli [4]) of the same compound?
Answer: 2 µg/mL (≈ 4.68 µM)

Question: How did the MIC (Kluyvera georgiana [1]) turn out when `CC(C)(O/N=C(\C(=O)N[C@@H]1C(=O)N2C(C(=O)[O-])=C(C[n+]3ccccc3)CS[C@H]12)c1csc(N)n1)C(=O)O` [CEFTAZIDIME] was run?
Answer: 0.063 µg/mL (≈ 0.115 µM)

Question: And the MIC (Escherichia coli [3])?
Answer: 0.25 µg/mL (≈ 0.457 µM)

Question: What about the MIC (Escherichia coli [4]) of the same compound?
Answer: 0.125 µg/mL (≈ 0.229 µM)

Question: With `CC(=O)OCC1=C(C(=O)O)N2C(=O)[C@@H](NC(=O)Cc3cccs3)[C@H]2SC1` [CEPHALOTHIN] as the compound, how does the MIC (Kluyvera georgiana [1]) read?
Answer: 8 µg/mL (≈ 20.2 µM)

Question: And the MIC (Escherichia coli [3])?
Answer: 256 µg/mL (≈ 646 µM)

Question: What about the MIC (Escherichia coli [4]) of the same compound?
Answer: 2 µg/mL (≈ 5.04 µM)

Question: With `NC[C@H]1O[C@H](O[C@H]2[C@H](O)[C@@H](O[C@H]3O[C@H](CO)[C@@H](O)[C@H](N)[C@H]3O)[C@H](N)C[C@@H]2N)[C@H](O)[C@@H](O)[C@@H]1O` [KANAMYCIN] as the compound, how does the MIC (Kluyvera georgiana [1]) read?
Answer: 16 µg/mL (≈ 33 µM)

Question: And the MIC (Escherichia coli [3])?
Answer: 256 µg/mL (≈ 528 µM)

Question: What about the MIC (Escherichia coli [4]) of the same compound?
Answer: 1 µg/mL (≈ 2.06 µM)

Question: How did the MIC (Kluyvera georgiana [1]) turn out when `CCn1cc(C(=O)O)c(=O)c2ccc(C)nc21` [NALIDIXIC ACID] was run?
Answer: 128 µg/mL (≈ 551 µM)

Question: And the MIC (Escherichia coli [3])?
Answer: 2 µg/mL (≈ 8.61 µM)

Question: How did the MIC (Kluyvera georgiana [1]) turn out when `CN(C)[C@@H]1C(O)=C(C(N)=O)C(=O)[C@@]2(O)C(O)=C3C(=O)c4c(O)cccc4[C@@](C)(O)[C@H]3C[C@@H]12` [TETRACYCLINE] was run?
Answer: ≤ 0.5 µg/mL

Question: And the MIC (Escherichia coli [3])?
Answer: 256 µg/mL (≈ 576 µM)

Question: With GENTAMICIN as the compound, how does the MIC (Kluyvera georgiana [1]) read?
Answer: 64 µg/mL

Question: And the MIC (Escherichia coli [3])?
Answer: < 0.5 µg/mL

From ChEMBL document CHEMBL1275606, “Novel chromosome-encoded CTX-M-78 beta-lactamase from a Kluyvera georgiana clinical isolate as a putative origin of CTX-M-25 subgroup” (2010)
